Laboratory results reported in ChEMBL document CHEMBL5131408, “Novel O-acylated amidoximes and substituted 1,2,4-oxadiazoles synthesised from (+)-ketopinic acid possessing potent virus-inhibiting activity against phylogenetically distinct influenza A viruses” (Bioorg Med Chem Lett, 2022).

What was measured:
[1] = Cytotoxicity against MDCK cells infected with Influenza A virus A/Puerto Rico/8/34 (H1N1) assessed as reduction in cell viability; type: toxicity, cell-based, Canis lupus familiaris; details: dog
Influenza A virus [2] = assay: Antiviral activity against Influenza A virus A/Puerto Rico/8/34 (H1N1) infected in MDCK cells assessed as inhibition of viral replication; type: functional, organism-based
[3] = Selectivity index, ratio of CC50 for cytotoxicity against MDCK cells infected with Influenza A virus A/Puerto Rico/8/34 (H1N1) to IC50 for antiviral activity against Influenza A virus A/Puerto Rico/8/34 (H1N1) infected in MDCK cells; type: toxicity, cell-based; details: dog; read-out: Ratio CC50/IC50
[4] = Cytotoxicity against MDCK cells infected with Influenza A virus A/Anhui/1/2013 (H7N9) assessed as reduction in cell viability; type: toxicity, cell-based, Canis lupus familiaris; details: dog
[5] = Selectivity index, ratio of CC50 for cytotoxicity against MDCK cells infected with Influenza A virus A/Anhui/1/2013 (H7N9) to IC50 for antiviral activity against Influenza A virus A/Anhui/1/2013 (H7N9) infected in MDCK cells; type: toxicity, cell-based; details: dog; read-out: Ratio CC50/IC50
Influenza A virus [6] = assay: Antiviral activity against Influenza A virus A/Anhui/1/2013 (H7N9) infected in MDCK cells assessed as inhibition of viral replication; type: functional, organism-based
Influenza A virus [7] = assay: Anti-membranotropic activity in Influenza A virus A/Puerto Rico/8/34 (H1N1) infected in chicken erythrocytes assessed as inhibition of hemagglutinin-driven membrane disruption incubated for 30 mins followed by infection in chicken erythrocytes; type: functional, organism-based; details: Erythrocyte, DDE = dose-dependent effect

CC1(C)[C@@H]2CC[C@@]1(c1nc(Cc3ccccc3F)no1)C(=O)C2
CC50 [1]: 394 µM
IC50 (Influenza A virus [2]): 78 µM
selectivity ratio [3]: 5

CC1(C)[C@@H]2CC[C@@]1(c1nc(Cc3ccc(Br)cc3)no1)C(=O)C2
CC50 [4]: > 800 µM
selectivity ratio [5]: 3
CC50 [1]: > 792 µM
IC50 (Influenza A virus [2]): 13 µM
IC50 (Influenza A virus [6]): 267 µM
selectivity ratio [3]: > 60

CC1(C)[C@@H]2CC[C@@]1(C(=O)O/N=C(\N)Cc1ccc(Cl)cc1)C(=O)C2
CC50 [1]: 73 µM
IC50 (Influenza A virus [2]): 15 µM
selectivity ratio [3]: 5

CC1(C)[C@@H]2CC[C@@]1(C(=O)O/N=C(\N)c1ccc(Cl)cc1)C(=O)C2
CC50 [4]: 75 µM
selectivity ratio [5]: 3
CC50 [1]: 239 µM
IC50 (Influenza A virus [2]): 14 µM
IC50 (Influenza A virus [6]): > 30 µM
selectivity ratio [3]: 17

CC1(C)[C@@H]2CC[C@@]1(c1nc(Cc3cccc(F)c3)no1)C(=O)C2
CC50 [4]: 344 µM
selectivity ratio [5]: 3
CC50 [1]: 411 µM
IC50 (Influenza A virus [2]): 7 µM
IC50 (Influenza A virus [6]): > 105 µM
Activity (Influenza A virus [7]): Dde
selectivity ratio [3]: 56

CC1(C)[C@@H]2CC[C@@]1(C(=O)O/N=C(\N)c1ccc(F)cc1)C(=O)C2
CC50 [4]: 94 µM
selectivity ratio [5]: 1
CC50 [1]: 236 µM
IC50 (Influenza A virus [2]): 8 µM
IC50 (Influenza A virus [6]): > 94 µM
selectivity ratio [3]: 29

CN(C)Cc1noc([C@]23CC[C@H](CC2=O)C3(C)C)n1
CC50 [1]: > 1190 µM
IC50 (Influenza A virus [2]): 913 µM
selectivity ratio [3]: 1

CC1(C)[C@@H]2CC[C@@]1(C(=O)O/N=C(\N)c1ccc(C(F)(F)F)cc1)C(=O)C2
CC50 [1]: > 1060 µM
IC50 (Influenza A virus [2]): 547 µM
selectivity ratio [3]: > 2

CC1(C)[C@@H]2CC[C@@]1(c1nc(Cc3ccc(F)cc3)no1)C(=O)C2
CC50 [1]: 497 µM
IC50 (Influenza A virus [2]): > 105 µM
selectivity ratio [3]: < 5

CC1(C)[C@@H]2CC[C@@]1(C(=O)O/N=C(\N)Cc1ccc(Br)cc1)C(=O)C2
CC50 [1]: 46 µM
IC50 (Influenza A virus [2]): 12 µM
selectivity ratio [3]: 4

CC1(C)[C@@H]2CC[C@@]1(c1nc(-c3cccc(F)c3)no1)C(=O)C2
CC50 [4]: > 1000 µM
selectivity ratio [5]: 11
CC50 [1]: > 1280 µM
IC50 (Influenza A virus [2]): 6 µM
IC50 (Influenza A virus [6]): 93 µM
selectivity ratio [3]: > 231

CC(C)/C(N)=N/OC(=O)[C@]12CC[C@H](CC1=O)C2(C)C
CC50 [1]: 730 µM
IC50 (Influenza A virus [2]): 50 µM
selectivity ratio [3]: 14

CC1(C)[C@@H]2CC[C@@]1(c1nc(-c3ccccc3)no1)C(=O)C2
CC50 [4]: 199 µM
selectivity ratio [5]: 2
CC50 [1]: 198 µM
IC50 (Influenza A virus [2]): 5 µM
IC50 (Influenza A virus [6]): > 117 µM
selectivity ratio [3]: 37

CC1(C)[C@@H]2CC[C@@]1(C(=O)O/N=C(\N)c1ccccn1)C(=O)C2
CC50 [4]: 688 µM
selectivity ratio [5]: 6
CC50 [1]: 751 µM
IC50 (Influenza A virus [2]): 18 µM
IC50 (Influenza A virus [6]): 110 µM
selectivity ratio [3]: 42

CC1(C)[C@@H]2CC[C@@]1(c1nc(-c3ccccn3)no1)C(=O)C2
CC50 [1]: > 1000 µM
IC50 (Influenza A virus [2]): > 1000 µM

C/C(N)=N/OC(=O)[C@]12CC[C@H](CC1=O)C2(C)C
CC50 [1]: 545 µM
IC50 (Influenza A virus [2]): 175 µM
selectivity ratio [3]: 3

CC1(C)[C@@H]2CC[C@@]1(c1nc(-c3ccncc3)no1)C(=O)C2
CC50 [4]: 1110 µM
selectivity ratio [5]: 3
CC50 [1]: 1000 µM
IC50 (Influenza A virus [2]): 25 µM
IC50 (Influenza A virus [6]): > 353 µM
selectivity ratio [3]: 40

CC1(C)[C@@H]2CC[C@@]1(c1nc(-c3ccc(Br)cc3)no1)C(=O)C2
CC50 [1]: 37 µM
IC50 (Influenza A virus [2]): 6 µM
selectivity ratio [3]: 6

Cc1noc([C@]23CC[C@H](CC2=O)C3(C)C)n1
CC50 [1]: > 904 µM
IC50 (Influenza A virus [2]): > 904 µM

CC1(C)[C@@H]2CC[C@@]1(c1nc(-c3ccccc3F)no1)C(=O)C2
CC50 [1]: 455 µM
IC50 (Influenza A virus [2]): 12 µM
selectivity ratio [3]: 37

CC1(C)[C@@H]2CC[C@@]1(c1nc(-c3ccc(C(F)(F)F)cc3)no1)C(=O)C2
CC50 [1]: 32 µM
IC50 (Influenza A virus [2]): 7 µM
selectivity ratio [3]: 5

CC1(C)[C@@H]2CC[C@@]1(C(=O)O/N=C(\N)c1cccc(F)c1)C(=O)C2
CC50 [4]: 79 µM
selectivity ratio [5]: 4
CC50 [1]: 155 µM
IC50 (Influenza A virus [2]): 6 µM
IC50 (Influenza A virus [6]): 21 µM
selectivity ratio [3]: 26

CC1(C)[C@@H]2CC[C@@]1(c1nc(-c3ccc(F)cc3)no1)C(=O)C2
CC50 [4]: 203 µM
selectivity ratio [5]: 7
CC50 [1]: 270 µM
IC50 (Influenza A virus [2]): 4 µM
IC50 (Influenza A virus [6]): 30 µM
selectivity ratio [3]: 74

CC1(C)[C@@H]2CC[C@@]1(C(=O)O/N=C(\N)c1ccccc1F)C(=O)C2
CC50 [1]: 238 µM
IC50 (Influenza A virus [2]): 46 µM
selectivity ratio [3]: 5

CC1(C)[C@@H]2CC[C@@]1(C(=O)O/N=C(\N)c1cccnc1)C(=O)C2
CC50 [4]: 831 µM
selectivity ratio [5]: 3
CC50 [1]: > 997 µM
IC50 (Influenza A virus [2]): 104 µM
IC50 (Influenza A virus [6]): > 332 µM
selectivity ratio [3]: > 10

CC(N)C12CC3CC(CC(C3)C1)C2 (configuration not stated) [RIMANTADINE]
selectivity ratio [5]: 7
CC50 [1]: 379 µM
IC50 (Influenza A virus [2]): 64 µM
IC50 (Influenza A virus [6]): 51 µM
selectivity ratio [3]: 6

CC(C)c1noc([C@]23CC[C@H](CC2=O)C3(C)C)n1
CC50 [1]: 897 µM
IC50 (Influenza A virus [2]): 188 µM
selectivity ratio [3]: 5

CC1(C)[C@@H]2CC[C@@]1(C(=O)O/N=C(\N)c1ccc(Br)cc1)C(=O)C2
CC50 [4]: 354 µM
selectivity ratio [5]: 118
CC50 [1]: 387 µM
IC50 (Influenza A virus [2]): 13 µM
IC50 (Influenza A virus [6]): 3 µM
selectivity ratio [3]: 31

CN(C)C/C(N)=N/OC(=O)[C@]12CC[C@H](CC1=O)C2(C)C
CC50 [1]: 433 µM
IC50 (Influenza A virus [2]): 52 µM
selectivity ratio [3]: 8

CCc1noc([C@]23CC[C@H](CC2=O)C3(C)C)n1
CC50 [1]: > 763 µM
IC50 (Influenza A virus [2]): 193 µM
selectivity ratio [3]: > 4

CC1(C)[C@@H]2CC[C@@]1(c1nc(Cc3ccc(Cl)cc3)no1)C(=O)C2
CC50 [4]: > 906 µM
selectivity ratio [5]: 120
CC50 [1]: > 906 µM
IC50 (Influenza A virus [2]): 36 µM
IC50 (Influenza A virus [6]): 8 µM
selectivity ratio [3]: > 25

CC1(C)[C@@H]2CC[C@@]1(C(=O)O/N=C(\N)c1ccccc1)C(=O)C2
CC50 [1]: 290 µM
IC50 (Influenza A virus [2]): 59 µM
selectivity ratio [3]: 5

CC1(C)[C@@H]2CC[C@@]1(C(=O)O/N=C(\N)Cc1ccccc1F)C(=O)C2
CC50 [1]: 877 µM
IC50 (Influenza A virus [2]): 124 µM
selectivity ratio [3]: 7

CC(C)(C)/C(N)=N/OC(=O)[C@]12CC[C@H](CC1=O)C2(C)C
CC50 [1]: > 1140 µM
IC50 (Influenza A virus [2]): 975 µM
selectivity ratio [3]: 1

CC(C)(C)c1noc([C@]23CC[C@H](CC2=O)C3(C)C)n1
CC50 [1]: 1140 µM
IC50 (Influenza A virus [2]): > 382 µM
selectivity ratio [3]: < 3

CCC(CC)O[C@@H]1C=C(C(=O)O)C[C@H](N)[C@H]1NC(C)=O [OSELTAMIVIR CARBOXYLATE]
CC50 [4]: > 100 µM
selectivity ratio [5]: > 625
CC50 [1]: > 100 µM
IC50 (Influenza A virus [2]): 0.18 µM
IC50 (Influenza A virus [6]): 0.16 µM

CC1(C)[C@@H]2CC[C@@]1(C(=O)O/N=C(\N)Cc1cccc(F)c1)C(=O)C2
CC50 [1]: 830 µM
IC50 (Influenza A virus [2]): > 318 µM
selectivity ratio [3]: 3

CC1(C)[C@@H]2CC[C@@]1(c1nc(-c3ccc(Cl)cc3)no1)C(=O)C2
CC50 [1]: 52 µM
IC50 (Influenza A virus [2]): 33 µM
selectivity ratio [3]: 2

CC1(C)[C@@H]2CC[C@@]1(C(=O)O/N=C(\N)Cc1ccc(F)cc1)C(=O)C2
CC50 [1]: 244 µM
IC50 (Influenza A virus [2]): > 126 µM
selectivity ratio [3]: < 2

CC/C(N)=N/OC(=O)[C@]12CC[C@H](CC1=O)C2(C)C
CC50 [1]: 807 µM
IC50 (Influenza A virus [2]): 162 µM
selectivity ratio [3]: 5

CC1(C)[C@@H]2CC[C@@]1(C(=O)O/N=C(\N)c1ccncc1)C(=O)C2
CC50 [1]: 846 µM
IC50 (Influenza A virus [2]): 78 µM
selectivity ratio [3]: 11

CC1(C)[C@@H]2CC[C@@]1(c1nc(-c3cccnc3)no1)C(=O)C2
CC50 [4]: 1060 µM
selectivity ratio [5]: 1
CC50 [1]: > 1060 µM
IC50 (Influenza A virus [2]): 13 µM
IC50 (Influenza A virus [6]): > 1060 µM
Activity (Influenza A virus [7]): Dde
selectivity ratio [3]: > 79
